In ChEMBL document CHEMBL1138706, “Synthesis and biological evaluation of novel taxoids designed for targeted delivery to tumors” (Bioorg Med Chem Lett, 2004):
pIC50: −log10 of the molar value.

What was measured:
[1] = system: A549; assay: inhibitory concentration against the growth of Non-small-cell lung carcinoma A549 cell line after 72 hr of exposure; assay type: functional, cell-based; details: Homo sapiens, A549, 72 h
[2] = system: MCF7; assay: inhibitory concentration against the growth of breast cancer MCF-7 cell line after 72 hr of exposure; assay type: functional, cell-based; details: Homo sapiens, MCF7, 72 h

pIC50 [1] | pIC50 [2] | SMILES
7.52 | 7.52 | COc1ccc(OC)c(C(=O)O[C@H]2[C@@H]3[C@]4(OC(C)=O)CO[C@@H]4C[C@H](O)[C@@]3(C)C(=O)[C@H](OC(C)=O)C3=C(C)[C@@H](OC(=O)[C@H](O)[C@@H](NC(=O)c4cccs4)c4cccs4)C[C@]2(O)C3(C)C)c1
7.52 | 8.00 | C/C=C/C(=O)N[C@@H](C=C(C)C)[C@@H](O)C(=O)O[C@H]1C[C@@]2(O)[C@@H](OC(=O)c3cc(OC)ccc3OC)[C@@H]3[C@]4(OC(C)=O)CO[C@@H]4C[C@H](O)[C@@]3(C)C(=O)[C@H](OC(C)=O)C(=C1C)C2(C)C
7.30 | 7.22 | COc1ccc(OC)c(C(=O)O[C@H]2[C@@H]3[C@]4(OC(C)=O)CO[C@@H]4C[C@H](O)[C@@]3(C)C(=O)[C@H](OC(C)=O)C3=C(C)[C@@H](OC(=O)[C@H](O)[C@@H](NC(=O)OC(C)(C)C)c4ccccc4)C[C@]2(O)C3(C)C)c1
7.40 | 7.30 | COc1ccc(OC)c(C(=O)O[C@H]2[C@@H]3[C@]4(OC(C)=O)CO[C@@H]4C[C@H](O)[C@@]3(C)C(=O)[C@H](OC(C)=O)C3=C(C)[C@@H](OC(=O)[C@H](O)[C@@H](NC(=O)C=C(C)C)c4cccs4)C[C@]2(O)C3(C)C)c1
6.00 | 6.00 | CC(=O)O[C@@]12CO[C@@H]1C[C@H](O)[C@@]1(C)C(=O)[C@H](O)C3=C(C)[C@@H](OC(=O)[C@H](O)[C@@H](NC(=O)OC(C)(C)C)c4ccccc4)C[C@@](O)([C@@H](OC(=O)c4ccccc4)[C@H]21)C3(C)C [DOCETAXEL]
6.89 | 7.52 | COc1ccc(OC)c(C(=O)O[C@H]2[C@@H]3[C@]4(OC(C)=O)CO[C@@H]4C[C@H](O)[C@@]3(C)C(=O)[C@H](OC(C)=O)C3=C(C)[C@@H](OC(=O)[C@H](O)[C@@H](NC(=O)c4ccccc4)c4ccccc4)C[C@]2(O)C3(C)C)c1
7.22 | 7.52 | COc1ccc(OC)c(C(=O)O[C@H]2[C@@H]3[C@]4(OC(C)=O)CO[C@@H]4C[C@H](O)[C@@]3(C)C(=O)[C@H](OC(C)=O)C3=C(C)[C@@H](OC(=O)[C@H](O)[C@H](C=C(C)C)NC(=O)c4ccco4)C[C@]2(O)C3(C)C)c1
7.40 | 7.40 | COc1ccc(OC)c(C(=O)O[C@H]2[C@@H]3[C@]4(OC(C)=O)CO[C@@H]4C[C@H](O)[C@@]3(C)C(=O)[C@H](OC(C)=O)C3=C(C)[C@@H](OC(=O)[C@H](O)[C@H](C=C(C)C)NC(=O)OC(C)(C)C)C[C@]2(O)C3(C)C)c1
7.40 | 7.52 | COc1ccc(OC)c(C(=O)O[C@H]2[C@@H]3[C@]4(OC(C)=O)CO[C@@H]4C[C@H](O)[C@@]3(C)C(=O)[C@H](OC(C)=O)C3=C(C)[C@@H](OC(=O)[C@H](O)[C@H](C=C(C)C)NC(=O)c4cccs4)C[C@]2(O)C3(C)C)c1
< 5.52 | < 5.52 | COc1ccc(OC)c(C(=O)O[C@H]2[C@@H]3[C@]4(OC(C)=O)CO[C@@H]4C[C@H](O)[C@@]3(C)C(=O)[C@H](OC(C)=O)C3=C(C)[C@@H](OC(=O)[C@H](O)[C@@H](NC(=O)c4ccccc4)c4cccs4)C[C@]2(O)C3(C)C)c1
7.70 | 7.70 | COc1ccc(OC)c(C(=O)O[C@H]2[C@@H]3[C@]4(OC(C)=O)CO[C@@H]4C[C@H](O)[C@@]3(C)C(=O)[C@H](OC(C)=O)C3=C(C)[C@@H](OC(=O)[C@H](O)[C@H](C=C(C)C)NC(=O)C=C(C)C)C[C@]2(O)C3(C)C)c1
7.00 | 7.22 | COc1ccc(OC)c(C(=O)O[C@H]2[C@@H]3[C@]4(OC(C)=O)CO[C@@H]4C[C@H](O)[C@@]3(C)C(=O)[C@H](OC(C)=O)C3=C(C)[C@@H](OC(=O)[C@H](O)[C@@H](NC(=O)c4cccs4)c4ccco4)C[C@]2(O)C3(C)C)c1
7.40 | 7.52 | CCCCOC(=O)N[C@@H](C=C(C)C)[C@@H](O)C(=O)O[C@H]1C[C@@]2(O)[C@@H](OC(=O)c3cc(OC)ccc3OC)[C@@H]3[C@]4(OC(C)=O)CO[C@@H]4C[C@H](O)[C@@]3(C)C(=O)[C@H](OC(C)=O)C(=C1C)C2(C)C
7.52 | 7.52 | COc1ccc(OC)c(C(=O)O[C@H]2[C@@H]3[C@]4(OC(C)=O)CO[C@@H]4C[C@H](O)[C@@]3(C)C(=O)[C@H](OC(C)=O)C3=C(C)[C@@H](OC(=O)[C@H](O)[C@@H](NC(=O)OC(C)(C)C)c4cccs4)C[C@]2(O)C3(C)C)c1
6.80 | 6.89 | C/C=C/C(=O)N[C@@H](c1ccco1)[C@@H](O)C(=O)O[C@H]1C[C@@]2(O)[C@@H](OC(=O)c3cc(OC)ccc3OC)[C@@H]3[C@]4(OC(C)=O)CO[C@@H]4C[C@H](O)[C@@]3(C)C(=O)[C@H](OC(C)=O)C(=C1C)C2(C)C
7.52 | 7.40 | COc1ccc(OC)c(C(=O)O[C@H]2[C@@H]3[C@]4(OC(C)=O)CO[C@@H]4C[C@H](O)[C@@]3(C)C(=O)[C@H](OC(C)=O)C3=C(C)[C@@H](OC(=O)[C@H](O)[C@@H](NC(=O)C=C(C)C)c4ccco4)C[C@]2(O)C3(C)C)c1
6.74 | 6.80 | C/C=C/C(=O)N[C@@H](c1cccs1)[C@@H](O)C(=O)O[C@H]1C[C@@]2(O)[C@@H](OC(=O)c3cc(OC)ccc3OC)[C@@H]3[C@]4(OC(C)=O)CO[C@@H]4C[C@H](O)[C@@]3(C)C(=O)[C@H](OC(C)=O)C(=C1C)C2(C)C
7.05 | 6.92 | COc1ccc(OC)c(C(=O)O[C@H]2[C@@H]3[C@]4(OC(C)=O)CO[C@@H]4C[C@H](O)[C@@]3(C)C(=O)[C@H](OC(C)=O)C3=C(C)[C@@H](OC(=O)[C@H](O)[C@@H](NC(=O)c4ccco4)c4ccco4)C[C@]2(O)C3(C)C)c1
7.40 | 7.40 | CCCCOC(=O)N[C@@H](c1cccs1)[C@@H](O)C(=O)O[C@H]1C[C@@]2(O)[C@@H](OC(=O)c3cc(OC)ccc3OC)[C@@H]3[C@]4(OC(C)=O)CO[C@@H]4C[C@H](O)[C@@]3(C)C(=O)[C@H](OC(C)=O)C(=C1C)C2(C)C
6.66 | 6.68 | COc1ccc(OC)c(C(=O)O[C@H]2[C@@H]3[C@]4(OC(C)=O)CO[C@@H]4C[C@H](O)[C@@]3(C)C(=O)[C@H](OC(C)=O)C3=C(C)[C@@H](OC(=O)[C@H](O)[C@@H](NC(=O)c4ccccc4)c4ccco4)C[C@]2(O)C3(C)C)c1
7.52 | 7.52 | CCCCOC(=O)N[C@@H](c1ccco1)[C@@H](O)C(=O)O[C@H]1C[C@@]2(O)[C@@H](OC(=O)c3cc(OC)ccc3OC)[C@@H]3[C@]4(OC(C)=O)CO[C@@H]4C[C@H](O)[C@@]3(C)C(=O)[C@H](OC(C)=O)C(=C1C)C2(C)C
7.30 | 7.22 | COc1ccc(OC)c(C(=O)O[C@H]2[C@@H]3[C@]4(OC(C)=O)CO[C@@H]4C[C@H](O)[C@@]3(C)C(=O)[C@H](OC(C)=O)C3=C(C)[C@@H](OC(=O)[C@H](O)[C@@H](NC(=O)c4ccco4)c4cccs4)C[C@]2(O)C3(C)C)c1
7.40 | 7.40 | COc1ccc(OC)c(C(=O)O[C@H]2[C@@H]3[C@]4(OC(C)=O)CO[C@@H]4C[C@H](O)[C@@]3(C)C(=O)[C@H](OC(C)=O)C3=C(C)[C@@H](OC(=O)[C@H](O)[C@H](C=C(C)C)NC(=O)c4ccccc4)C[C@]2(O)C3(C)C)c1
5.77 | 6.10 | CC(=O)O[C@H]1C(=O)[C@@]2(C)[C@H]([C@H](OC(=O)c3ccccc3)[C@]3(O)C[C@H](OC(=O)[C@H](O)[C@@H](NC(=O)c4ccccc4)c4ccccc4)C(C)=C1C3(C)C)[C@]1(OC(C)=O)CO[C@@H]1C[C@@H]2O [PACLITAXEL]
7.52 | 7.40 | COc1ccc(OC)c(C(=O)O[C@H]2[C@@H]3[C@]4(OC(C)=O)CO[C@@H]4C[C@H](O)[C@@]3(C)C(=O)[C@H](OC(C)=O)C3=C(C)[C@@H](OC(=O)[C@H](O)[C@@H](NC(=O)OC(C)(C)C)c4ccco4)C[C@]2(O)C3(C)C)c1
